This is an account of results in publication PMC11904948, “Peptide‐Drug Conjugate for Therapeutic Reprogramming of Tumor‐Associated Macrophages in Breast Cancer” (Advanced Science, 2025).

Peptide text beside a SMILES is read from it. * marks the point of attachment. 5FAM = O=C1OC2(c3ccc(O)cc3Oc3cc(O)ccc32)c2ccc(C(=O)*)cc21; Ahx = NCCCCCC(=O)O

Data set [1] in a line: Liver accumulation in the biodistribution study. Conditions: i.v., i.p. and oral, 30 nmol, 24 h circulation, immunostaining, n = 3 mice. The class given is in vivo, Balb/c mice. As for the experimental part: (§1) We subsequently determined the blood half‐life of FAM‐MACTIDE using i.v. and i.p. administration (Figure S1, Supporting Information).
(§2) When tumors reached ≈100 mm^3, 30 nmol of FAM‐MACTIDE or FAM‐mUNO was injected i.p., i.v. or through oral gavage and circulated for 24 h. […] Blocks were cryosectioned at 10 µm thickness on Superfrost+ slides (ThermoFisher Scientific, catalog no. J1800AMNZ) and stored at −20 °C or used instantly. Immunofluorescence staining was performed as described previously.^[ [5] ^] […] Slides were counterstained using 4,6‐diamidino‐2‐phenylindole (DAPI, 5 µg mL^−1 in PBS, Sigma–Aldrich, catalog no. D9542‐5MG). […] The colocalization analysis was performed using the “Coloc2” plugin in the Fiji program using Mandler's tM2 index. Values were obtained from at least three individual images per mouse per group and their average values were plotted. The FAM mean signal per CD206^+ cell analysis was measured using Fiji, taking the mean FAM signal, and dividing it by the number of CD206^+ cells. Average values were obtained from four images per mouse for n = 3 mice.

The next data set relates to CD206. The conditions noted are these: cited from earlier work. The text has this:
Targeting CD206 is also promising for diagnostic purposes, as an increased number of CD206^+ cells in lymph nodes correlates with relapse onset in some cancers.^[ [6] ^] Most synthetic compounds designed to target CD206 utilize mannose as the recognition moiety.

Data set [2] can be described thus: Peptide stability in 4T1 tumor lysate (LC-MS). Conditions: lysate of 4T1 orthotopic TNBC tumors (mouse), 30 µM peptide, 37 °C, aliquots 0, 10, 30, 60, 180, 1440 min. The class given is in vitro ADME. The method, then:
Figure 3 MACTIDE has higher affinity and proteolytic stability than mUNO. A) QCM experiment of MACTIDE, mUNO, and control peptides at a final concentration of 10 µM in PBS on multilayers of PAH/CD206 or control multilayers of PAH/BSA. The black arrow indicates when the peptides were added, blue and red arrows indicate when the washing step with PBS started. B) Integrity of FAM‐MACTIDE and FAM‐mUNO measured by LC‐MS at different time points after incubation of peptides with lysate derived from a 4T1 tumor.
We next evaluated the stability of fluorescein (FAM)‐MACTIDE against proteases from breast tumors. To this end, we incubated both FAM‐MACTIDE and FAM‐mUNO with a tumor lysate obtained from 4T1 orthotopic TNBC tumors using different timepoints and evaluated the integrity of the peptide using liquid chromatography‐mass spectrometry (LC‐MS). We observed that the half‐life of FAM‐MACTIDE in this tumor lysate increased 5‐fold with respect to FAM‐mUNO (Figure 3B).
For peptide stability measurements, 200 µL of freshly prepared tumor lysate was mixed with 50 µL of PBS (as control), 30 µM of FAM‐mUNO, or 30 µM of FAM‐MACTIDE and incubated at 37 °C. 40 µL aliquots were taken at 0, 10, 30, 60, 180 and 1440 min. 80 µL of methanol was added to each aliquot and it was immediately stored at −80 °C until analysis later on the same or the following day. […]

In the next data set the test system is CD206^+ TAM. Put plainly: In vivo homing to CD206+ TAM in orthotopic 4T1 tumor-bearing mice. The conditions noted are these: 30 nmol, 24 h circulation. Set-up: species or system Balb/c mice. The method, then:
as §1
Thirty nmol of FAM‐MACTIDE or FAM‐mUNO were administered i.v. (A), i.p. (B), or orally (C) and left to circulate for 24 h. After 24 h, mice were sacrificed, and the organs were collected, fixed, cryoprotected, sectioned, and immunostained for FAM (shown in green) and CD206 (shown in red). The CD206/FAM colocalization indices were calculated from representative images from n = 3 tumors, using Fiji (Mandler's tM2 index) and the signal intensity per CD206^+ TAM (i.p. administration) was quantified using ImageJ (B). Scale bars = 100 µm. ^* p ≤ 0.05, ^** p ≤ 0.01 (Anova one‐way fisher LSD).
as §2

Data set [3] is described as follows: Blood half-life by plasma fluorescence. The class given is in vivo, mice. The conditions noted are these: i.v. and i.p., 30 nmoles, plasma fluorescence in FAM channel, n = 3; compared with FAM-mUNO values of ref 5. The text has this:
We subsequently determined the blood half‐life of FAM‐MACTIDE using i.v. and i.p. administration (Figure S1, Supporting Information). […] Importantly, we observed low liver accumulation with these administration routes for both peptides (Figure S2, Supporting Information).
Figure S1.: Pharmacokinetics of i.p. and i.v. administered FAM-MACTIDE (30 nmoles) analyzed by detecting plasma fluorescence in the FAM channel at different timepoints (n=3).

For data set [4] the following is noted: general statement, no reference given; cited from earlier work. The text has this: Verteporfin (V), is a photosensitizer and inhibitor of the activation of YAP.^[ [41] ^] […] Verteporfin, in its liposomal formulation Visudyne, is an approved drug for certain ophthalmological indications. In clinical trials for cancer therapy, Verteporfin is mostly used for photodynamic therapy (clinical trial identifiers: NCT03067051, NCT03033225, NCT04590664).

On the set-up of data set [5]: method as in PMID 39575977. Conditions: cited from earlier work.
Details of data set [6]: method as in PMID 36632235. The conditions noted are these: cited from earlier work.

`C[C@H](NC(=O)CNC(=O)[C@@H]1CCCN1C(=O)[C@H](CO)NC(=O)[C@H](CS)NC(=O)CCCCCNC(=O)c1ccc2c(c1)C(=O)OC21c2ccc(O)cc2Oc2cc(O)ccc21)C(=O)N[C@@H](CCCCN)C(=O)O` [FAM‐mUNO, reference compound] ({5FAM-Ahx}-CSPGAK-OH): the liver accumulation result in data set [1] is “does not accumulate in the liver”.

On to `OC[C@H]1OC(O)[C@@H](O)[C@@H](O)[C@@H]1O` (stereo partly drawn) [mannose], for which the “affinity of mannose (CD206 recognition moiety)” value with CD206 is reported as “millimolar range”.

Consider “FAM‐Ahx‐G(CTKSIPPIC)SPGAK‐OH (disulfide) [FAM‐MACTIDE, carboxyfluorescein-labelled MACTIDE]”, for which, in data set [2], the “half‐life in tumor lysate, fold increase with respect to FAM‐mUNO” value is reported as 5 fold. Moreover, the CD206/FAM colocalization in the data set with CD206^+ TAM (i.p., 4T1 tumors, Fiji tM2 index, n = 3 tumors) is reported as 80%. The “FAM intensity per CD206^+ TAM, fold higher than FAM‐mUNO” value with CD206^+ TAM (i.p., 4T1 tumors, ImageJ, n = 3 mice) is 10 fold. Also, in the data set with CD206^+ TAM (i.v., immunostaining of 4T1 tumor sections for FAM and CD206), the “CD206^+ TAM targeting, intravenous” value was “showed CD206^+ TAM targeting”. Also, the “CD206^+ TAM targeting, oral” value in the data set on CD206^+ TAM (oral gavage, immunostaining of 4T1 tumor sections) is “targeted CD206^+ TAM”. The liver accumulation result in data set [1] is recorded as “does not accumulate in the liver”. Moreover, the “blood half‐life” value in data set [3] is recorded as “equal to those obtained previously for FAM‐mUNO”.

Turning to Verteporfin, the solubility in water result in data set [4] is “insoluble in water”. The “cell specificity of free Verteporfin” value in data set [5] is listed as “not cell‐specific”. The cardiotoxicity in vivo result in data set [6] is listed as “cardiotoxicity”.
